Values of other authors in paper PMC3502511, “Inhibition of the Prokaryotic Pentameric Ligand-Gated Ion Channel ELIC by Divalent Cations” (PLoS Biology, 2012).

Target: T1, ELIC (Dickeya chrysanthemi, UniProt P0C7B7, INS163G)
T1 construct: expressed in transfected cells; host or cells: HEK 293 cells (ATCC CRL-1573), pcDNA3
Conditions: single channel data; ref Marabelli et al., in preparation; cited from earlier work

T1 sequence (P0C7B7 other isoform, or with tags, fused parts or gaps INS163G): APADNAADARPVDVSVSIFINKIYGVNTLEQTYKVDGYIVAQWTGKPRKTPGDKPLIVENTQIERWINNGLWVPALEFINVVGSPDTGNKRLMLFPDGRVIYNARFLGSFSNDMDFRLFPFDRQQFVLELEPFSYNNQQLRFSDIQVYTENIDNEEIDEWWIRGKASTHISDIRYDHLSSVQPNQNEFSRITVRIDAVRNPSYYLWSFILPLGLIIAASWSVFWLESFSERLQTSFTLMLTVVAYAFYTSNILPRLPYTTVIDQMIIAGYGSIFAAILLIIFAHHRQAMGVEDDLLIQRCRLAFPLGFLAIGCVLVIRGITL

Question: For `NCCS` [cysteamine], which “maximum Popen” value is on record?
Answer: 98%
